The values below come from US20130337579A1, “Methods for Determining Protein Ligand Binding” (UNIVERSITY OF MARYLAND, COLLEGE PARK, priority 2010, published 2013).

Experiment [1] has as its target T1, Alg44PilZ expressed in E. coli BL21(DE3) (Pseudomonas aeruginosa, UniProt Q9HY69).
T1 construct: E. coli BL21(DE3) expressing Alg44PilZ and variants; expressed in transfected cells; host or cells: E. coli BL21(DE3), whole cell lysate
Briefly: DRaCALA of whole cell lysates of E. coli BL21(DE3) expressing Alg44PilZ. It is filed as binding, P. aeruginosa. From the text: A major limitation of most biochemical assays is the requirement for purified protein. We asked whether DRaCALA could be applied to crude extracts to overcome this limitation. Alg44PilZ binding to cdiGMP requires a number of conserved residues, including R17, R21, D44 and S46, in the PilZ domain of the protein. E. coli BL21(DE3) expressing Alg44PilZ and variants with R21A, D44A, S46A, and R17A/R21A substitutions were lysed and tested for binding to cdiGMP using DRaCALA. […] Only the whole cell lysates from E. coli expressing wild-type Alg44PilZ sequestered ^32P-cdiGMP (FIG. 4A). […] A significant difference between the bound fractions for cdiGMP or GTP competition experiments was detected for the wild-type Alg44PilZ, but not for the PilZ domain mutants (FIGS. 4A and 4B). […]
Protein or whole cell lysates in 1× cdiGMP binding buffer (20 μl) was mixed with 4 nM of radiolabeled nucleotide and allowed to incubate for 10 minutes at room temperature. […] These mixtures were pipetted (2.5-5 μl) onto dry, untreated nitrocellulose (GE Healthcare) in triplicate and allowed to dry completely before quantification. An FLA7100 Fujifilm Life Science Phosphorimager was used to detect luminescence following a 5-minute exposure of blotted nitrocellulose to phosphorimager film. Data was quantified using Fujifilm Multi Gauge software v3.0. […]

Experiment [2] deals with lysates from various organisms or tissues. Briefly: DRaCALA analysis of cdiGMP binding by lysates from various organisms or tissues.
Experiment [3] deals with Maltose binding protein (MBP) (Escherichia coli, UniProt P0AEX9). Conditions: whole-cell lysate, 8 nM 32P-cdiGMP. On the procedure: Radiolabeled ligands were incubated with each of the proteins and the mixtures were spotted on nitrocellulose. After spreading by capillary action, membranes were dried and quantitated by phosphorimager. […] The specificity of Alg44PilZ binding to cdiGMP was further tested by competition with excess unlabeled nucleotides (400-fold molar excess relative to the Alg44PilZ protein).

The next experiment addresses Vc2* riboswitch RNA. Nature of the experiment: Electrophoretic mobility shift assay (EMSA) of cdiGMP binding to Vc2* RNA. Conditions: read-out: Kd (apparent affinity). From the text:
We have shown that protein interaction with DNA can be detected by DRaCALA. We wondered if the principle of DRaCALA would also apply to ribonucleic acids. In particular, can the DRaCALA technology be used to detect the interaction of riboswitches with their small molecule ligands. One example of such an interaction that has been of recent interest is the cdiGMP responsive Vc2 riboswitch identified in bacteria. To study such an interaction with DRaCALA, one of the binding partners must be immobilized. […] The biotinylated riboswitch was sequestered by streptavidin, allowing the nucleic acid to take the place of protein as the immobile partner in the binding assay. Vc2* was tested directly for sequestration of cdiGMP and also biotinylated and tested for binding to cdiGMP in the presence or absence of streptavidin. The 4 nM radiolabelled cdiGMP was mobile alone and in the presence of the Vc2* or biotinylated Vc2* RNA (FIG. 19A, lanes 1-3). […] Biotinylated Vc2* RNA and bound cdiGMP was immobilized by streptavidin as expected (lane 6). […]
Gel shift assays were performed using 8% acrylamide gels with 100 mM Tris/HEPES, pH=7.5, 10 mM MgCl2, and 0.1 mM EDTA in the gel and running buffer. […] Gels were imaged with a phosphorimager and fraction bound quantified with Fuji Image Guage software. […]
In general terms: In EMSA bound probe runs differently from free probe, usually more slowly.

Bounds are passed on as bounds.

T1 sequence (Q9HY69 16-116): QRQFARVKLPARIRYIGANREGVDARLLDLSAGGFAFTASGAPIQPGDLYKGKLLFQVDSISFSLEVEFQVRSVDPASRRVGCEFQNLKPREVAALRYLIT

Regarding `Nc1nc2c(ncn2[C@@H]2O[C@@H]3CO[P@](=O)(O)O[C@H]4[C@@H](O)[C@H](n5cnc6c(=O)[nH]c(N)nc65)O[C@@H]4CO[P@](=O)(O)O[C@H]3[C@H]2O)c(=O)[nH]1` [cdiGMP, cyclic-di-GMP], in experiment [1] (Alg44PilZ with or without MBP tag, BL21 whole cell extracts), the “specific sequestration by whole cell extracts with soluble or insoluble protein” value is listed as “specifically sequester”. In addition, the “sequestration of 32P-cdiGMP by whole cell lysate” value in experiment [1] (E. coli BL21(DE3) expressing wild-type Alg44PilZ) is recorded as “sequestered”. The “BC (non-specific binding)” value in experiment [2] (mammalian tissue extracts from rodent and human cell lines) is over 0.233. The BSp entry in experiment [2] (whole cell extracts of protozoa, fungi and nematodes) is “below 1.17”. Also, the “binding by protein extracts from E. coli expressing MBP alone” value in experiment [3] is “did not bind”. The Kd on Vc2* riboswitch RNA stood at 9.8 nM.
